Test results reported in patent publication US7727955B2, “Pharmaceutical compositions based on NK2 antagonists for pediatric use” (Laboratori Guidotti S.p.A., priority 2004, dated 2010).
Positions of bridges follow the written chain, without caps; N, C: chain ends. Non-standard residues stand in square brackets, D forms with d. Residues, ends and D or L forms follow the SMILES beside them. *: point of attachment. NH(β-GlcNAc) = CC(=O)N[C@@H]1[C@@H](O)[C@H](O)[C@@H](CO)O[C@H]1N*; Dap = NC[C@H](N)C(=O)O

Columns and labels:
NK2 receptors = target: T1, NK2 receptors (Rattus norvegicus, UniProt P16610); assay: Intestinal transit of a carbon suspension in infant rats, increase induced by NK2 selective agonist β-Ala^8-NKA(4-10); assay type: in vivo; settings: infant rats aged 7-10 days
T1 construct: prevent the increase in intestinal transit induced by the stimulation of NK2 receptors by the β-Ala^8-NKA(4-10) agonist; from tissue; host or cells: whole animal: infant rats aged 7-10 days (intestine, in vivo)
T1 sequence (P16610 1-390): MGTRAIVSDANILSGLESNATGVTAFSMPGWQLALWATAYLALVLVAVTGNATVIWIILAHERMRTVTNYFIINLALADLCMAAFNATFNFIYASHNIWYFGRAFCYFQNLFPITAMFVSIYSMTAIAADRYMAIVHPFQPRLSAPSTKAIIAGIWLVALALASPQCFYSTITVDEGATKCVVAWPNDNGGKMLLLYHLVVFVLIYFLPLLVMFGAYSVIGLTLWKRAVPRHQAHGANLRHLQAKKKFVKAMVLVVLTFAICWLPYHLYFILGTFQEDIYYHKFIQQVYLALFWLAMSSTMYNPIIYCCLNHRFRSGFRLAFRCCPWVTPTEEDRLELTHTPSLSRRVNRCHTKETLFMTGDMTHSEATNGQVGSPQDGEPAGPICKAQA
Protocol: (§1) The formulations of the present invention were tested for their biological activity in vivo on newborn rats in accordance with the following method:
(§2) a) The NK2 selective agonist β-Ala^8-NKA(4-10) was administered intraperitoneally to infant rats aged between 7 and 10 days, both males and females, at a dose of 15 μg/kg. A 10% suspension of carbon in 1% methylcellulose was then administered orally to the animals at a volume of 15 ml/kg. The same carbon-based suspension was administered to a control group which had not received the NK2 agonist.

infantile colics = settings: clinical evidence from literature; cited from earlier work
[1] = set-up: species or system rats; settings: rat, in vivo, po
animal models of IBS = settings: cited from earlier work
infant rats = assay: Basal intestinal transit in infant rats without agonist administration; assay type: in vivo; settings: oral, nepadutant 2.5 mg/kg, measured at 6 hours after administration, no agonist
Protocol: as §1, §2

clinical = settings: human, in vivo, po

## β-Ala^8-NKA(4-10) [reference compound]
NK2 receptors; 15 μg/kg i.p., versus control group without agonist
  increase in intestinal transit after agonist administration: significant increase in intestinal transit

## simethicone
Infantile colics
  effect versus placebo: no better than placebo

## CC(=O)N[C@@H]1[C@@H](O)[C@H](O)[C@@H](CO)O[C@H]1NC(=O)C[C@@H]1NC(=O)[C@H](CC(C)C)NC(=O)[C@@H]2CNC(=O)C[C@H](NC1=O)C(=O)N[C@@H](Cc1c[nH]c3ccccc13)C(=O)N[C@@H](Cc1ccccc1)C(=O)N2 [Nepadutant, cyclo((Asn(β-D-2-deoxy-2-acetamido-Glc)-Asp-Trp-Phe-Dap-Leu)cyclo(2β-5β))] (cyclo(D(NH(β-GlcNAc))DWF[Dap]L); lactam 2-5)
NK2 receptors; oral, nepadutant 0.5 and 2.5 mg/kg at 2, 4 and 6 hours before agonist 15 μg/kg i.p.
  prevention of the increase in intestinal transit induced by β-Ala^8-NKA(4-10): able to prevent the increase in intestinal transit
[1]
  bioavailability in infant rats: substantially enhanced
Animal models of IBS
  correction of hyperalgesia: corrects hyperalgesia
Infant rats
  effect on basal intestinal transit: no effect on basal intestinal transit
clinical
  bioavailability: 1%
